Experiments:
[1] = system: serum ALT level after CCl4 treatment; assay: Determination of 50% inhibitory dose (ID50) against CCl4-induced serum ALT increase; assay type: in vivo; settings: Mus musculus; mice, oral, 6 h before CCl4; estimated from dose-response curve at 50, 25, 12.5, 6.25 mg/kg
Method: Principle The various doses of test compounds were administered to mice, followed by the treatment with CCl4 after 6 hours. 24 Hours after the CCl4 treatment, the serum ALT level of the animals were determined. The hepatoprotective effect of the test compounds and the doses were plotted to form dose-response curves. The ID50 doses of the test compounds were estimated from the dose-response curves.
Method; The experimental animals were divided into normal, CCl4 treated and test compound treated groups. Each group consisted of 8 mice with body weight of 20-25 grams. The test compounds were suspended in 0.2% CMC-Na solution and administered orally at a dose of 50 mg, 25 mg, 12.5 mg, or 6.25 mg/125 ml/kg body weight. Only the vehicle, 0.2% CMC-Na solution, was administered to the normal and to the CCl4 treated group instead of the test compound suspension. 6 Hours after the drug administration, the CCl4 solution in olive oil was administered orally to the CCl4 treated and the test compound treated groups at the dose of 50 ul/25 ml olive oil/kg body weight. The normal group was administered olive oil only at the same dose. 24 Hours after the CCl4 administration, blood samples were collected from the orbital sinus of the animals and the sera were obtained by centrifugation. The serum ALT activities were monitored and the hepatoprotective effect of the test compounds were calculated by the same method as described in experiment 1. The inhibitory percentages were plotted against the corresponding doses of the test compounds to make dose-response curves. The 50% inhibitory dose of test compound was estimated from the dose-response curve.

[2] = system: serum ALT activity induced by CCl4; assay: Protective effect against acute hepatic damage induced by carbon tetrachloride (serum ALT); assay type: in vivo; settings: Mus musculus; mice, 50 mg/kg oral, 6 h before CCl4 (50 ul/kg oral); ALT 24 h after CCl4; read-out: Inhibitory (%): protective effect against increase of serum ALT activity induced by CCl4
Method: Principle; Carbon tetrachloride (CCl4) is a well-known hepatotoxic agent, thus widely used to produce experimental animal models for screening the potential drugs acting upon hepatic diseases. In this experiment test compounds were administered to mice prior to treatment with CCl4. 24 Hours after the CCl4 treatment, the animals were sacrificed and serum alanine aminotransferase (ALT) levels were determined. The hepatoprotective effect of a test compound was evaluated by the suppressive action against the increase of serum ALT induced by CCl4.
Method; The experimental animals were divided into normal, CCl4 treated and test compound treated groups. Each group consisted of 8 mice with body weight of 20-25 grams. The test compounds were suspended in 0.2% sodium carboxy methyl cellulose (CMC-Na) solution and administered orally at the dose of 50 mg/125 ml/kg body weight. Only the vehicle, 0.2% CMC-Na solution, was administered to the normal and to the CCl4 treated group instead of the test compound suspension. 6 Hours after the drug administration, the CCl4 solution in olive oil was administered orally to the CCl4 treated- and the test compound treated group at the dose of 50 ul/25 ml olive oil/kg body weight. The normal group was administered olive oil only at the same dose. 24 Hours after the CCl4 administration, blood samples were collected from the orbital sinus of the animals and the sera were obtained by centrifugation The serum ALT activities were monitored using an automatic blood analyzer (Gilford, SBA 300). The hepatoprotective effect of the test compounds was expressed by the suppressive percentage against the increase of serum ALT level induced by CCl4 calculated by the following formula; [formula]

[3] = Acute oral toxicity, median lethal dose (LD50); settings: mouse, in vivo, male ICR mice, deaths counted for 14 days
Method: Each test compound was suspended in a 0.2% CMC-Na solution in various concentrations to make test suspension. The test suspensions were administered orally to male ICR mice (10 in each group) at various doses. The number of dead mice was counted for 14 days and the value of mediam lethal dose (LD50, g/kg) was calculated by the Hitchifield-Wilcoxon method.

| Structure (SMILES) | ED50 [1] | inhibition in vivo at 50 mg/kg [2] | LD50 at 336 h [3] |
| --- | --- | --- | --- |
| CC(C)OC(=O)C(C(=O)NC1CCSC1=O)=C1SC=CS1 (centres unmarked) [14(a)] | 10 mg/kg | 99.2% | > 5000 mg/kg |
| CCOC(=O)C(C(=O)NC1CCSC1=O)=C1SC=CS1 (centres unmarked) [14(b), Ethyl 2-(1,3-dithiol-2-ylidene)-2-[N-(tetrahydrothiophen-2-on-3-yl)carbamoyl]acetate] | 25 mg/kg | 88.7% | > 4000 mg/kg |
| CC(C)OC(=O)C(C(=O)Nc1ccccc1)=C1SC=CS1 [17(a), Isopropyl 2-(1,3-dithiol-2-ylidene)-2-(N-phenylcarbamoyl)acetate] | 8 mg/kg | 100% | 3000 mg/kg |
| CCC(C)OC(=O)C(C(=O)Nc1ccccc1)=C1SC=CS1 (centres unmarked) [17(b), sec-Butyl 2-(1,3-dithiol-2-ylidene)-2-(N-phenylcarbamoyl)acetate] | 12.5 mg/kg | 99.8% | > 5000 mg/kg |
| CCOC(=O)C(C(=O)Nc1ccccc1)=C1SC=CS1 [17(c), Ethyl 2-(1,3-dithiol-2-ylidene)-2-(N-phenylcarbamoyl)acetate] | 8 mg/kg | 100% | > 5000 mg/kg |
| COC(=O)C(C(=O)Nc1ccccc1)=C1SC=CS1 [17(d), Methyl 2-(1,3-dithiol-2-ylidene)-2-(N-phenylcarbamoyl)acetate] | 20 mg/kg | 98.2% |  |
| CC(C)OC(=O)C(C(=O)Nc1ccc(F)c(Cl)c1)=C1SC=CS1 [17(k)] | 6.25 mg/kg | 93.8% |  |
| CCOC(=O)C(C(=O)Nc1ccc(OC)cc1)=C1SC=CS1 [17(m), Ethyl 2-(1,3-dithiol-2-ylidene)-2-[N-(4-methoxyphenyl)carbamoyl]acetate] | 50 mg/kg | 61.5% |  |
| CCC(C)OC(=O)C(C(=O)Nc1ccc(OC)cc1)=C1SC=CS1 (centres unmarked) [17(n), sec-Butyl 2-(1,3-dithiol-2-ylidene)-2-[N-(4-methoxyphenyl)carbamoyl]acetate] | 10 mg/kg | 96.5% | > 5000 mg/kg |
| CC(C)OC(=O)C(C(=O)Nc1ccccn1)=C1SC=CS1 [18(a), Isopropyl 2-(1,3-dithiol-2-ylidene)-2-[N-(2-pyridyl)carbamoyl]acetate] | < 6.25 mg/kg | 99.8% | 4200 mg/kg |
| CCC(C)OC(=O)C(C(=O)Nc1ccccn1)=C1SC=CS1 (centres unmarked) [18(b), sec-Butyl 2-(1,3-dithiol-2-ylidene)-2-[N-(2-pyridyl)carbamoyl]acetate] | 7 mg/kg | 100% | 5000 mg/kg |
| CC(C)OC(=O)C(C(=O)Nc1cccnc1)=C1SC=CS1 [18(c), Isopropyl 2-(b 1,3-dithiol-2-ylidene)-2-[N-(3-pyridyl)carbamoyl]acetate] | 6.25 mg/kg | 100% |  |
| CC(C)OC(=O)C(C(=O)Nc1ccncc1)=C1SC=CS1 [18(d), Isopropyl 2-(1,3-dithiol-2-ylidene)-2-[N-(4-pyridyl)carbamoyl]acetate] | < 6.25 mg/kg | 99.7% | 1100 mg/kg |
| Cc1ccnc(NC(=O)C(C(=O)OC(C)C)=C2SC=CS2)c1 [18(e), Isopropyl 2-(1,3-dithiol-2-ylidene)-2-[N-(4-methyl-2-pyridyl)carbamoyl]acetate] | 20 mg/kg | 99.7% | > 5000 mg/kg |
| Cc1cccc(NC(=O)C(C(=O)OC(C)C)=C2SC=CS2)n1 [18(f), Isopropyl 2-(1,3-dithiol-2-ylidene)-2-[N-(6-methyl-2-pyridyl)carbamoyl]acetate] | 12.5 mg/kg | 100% | > 5000 mg/kg |
| CC(C)OC(=O)C(C(=O)Nc1ccc(Cl)cn1)=C1SC=CS1 [18(g)] | 25 mg/kg | 77.3% | > 5000 mg/kg |
| Cc1cc(NC(=O)C(C(=O)OC(C)C)=C2SC=CS2)no1 [18(h), Isopropyl 2-(1,3-dithiol-2-ylidene)-2-[N-(5-methyl-3-isoxazolyl)carbamoyl]acetate] | 9 mg/kg | 100% | > 5000 mg/kg |
| CC(C)OC(=O)C(C(=O)Nc1nncs1)=C1SC=CS1 [18(i), Isopropyl 2-(1,3-dithiol-2-ylidene)-2-[N-(1,3,4-thiadiazol-2-yl)carbamoyl]acetate] | < 6.25 mg/kg | 100% | > 5000 mg/kg |
| Cc1nnc(NC(=O)C(C(=O)OC(C)C)=C2SC=CS2)s1 [18(j)] | 10 mg/kg | 100% | > 5000 mg/kg |
| CC(C)OC(=O)C(C(=O)Nc1cnccn1)=C1SC=CS1 [18(l), Isopropyl 2-(1,3-dithiol-2-ylidene)-2-[N-(pyrazin-2yl)carbamoyl]acetate] | < 6.25 mg/kg | 99.8% | > 5000 mg/kg |
| CC(C)OC(=O)C(C(=O)Nc1[nH]cnc1C(N)=O)=C1SC=CS1 [18(o), Isopropy 2-(1,3-dithiol-2-ylidene)-2-[N-(4-carboxamido-5-imidazolyl)carbamoyl]acetate] | 25 mg/kg | 98.7% | > 5000 mg/kg |
| CC(C)OC(=O)C(C(=O)Nc1nccs1)=C1SC=CS1 [19(a), Isopropyl 2-(b 1,3-dithiol-2-ylidene)-2-[N-(2-thiazolyl)-carbamoyl) acetate] | 6.25 mg/kg | 100% | > 5000 mg/kg |
| CCOC(=O)C(C(=O)Nc1nccs1)=C1SC=CS1 [19(b)] | 6.25 mg/kg | 101% | 2500 mg/kg |
| CCC(C)OC(=O)C(C(=O)Nc1nccs1)=C1SC=CS1 (centres unmarked) [19(c), sec-Butyl 2-(1,3-dithiol-2-ylidene)-2-[N-(2-thiazolyl)-carbamoyl]acetate] | < 6.25 mg/kg | 100% |  |
| Cc1csc(NC(=O)C(C(=O)OC(C)C)=C2SC=CS2)n1 [19(d), Isopropyl 2-(1,3-dithiol-2-ylidene)-2-[N-(4-methyl-2-thiazolyl)carbamoyl]acetate] | < 6.25 mg/kg | 97.2% | 5000 mg/kg |
| Cc1cnc(NC(=O)C(C(=O)OC(C)C)=C2SC=CS2)s1 [19(e), Isopropyl 2-(1,3-dithiol-2-ylidene)-2-[N-(5-methyl-2-thiazolyl)carbamoyl]acetate] | 25 mg/kg | 9.2% |  |
| CC(C)OC(=O)C(C(=O)Nc1cc[nH]n1)=C1SC=CS1 [20(a), Isopropyl 2-(1,3-dithiol-2-ylidene)-2-[N-(3-pyrazolyl)-carbamoyl]acetate] | 8 mg/kg | 102% | 5000 mg/kg |
| CC(C)OC(=O)C(C(=O)Nc1nnn[nH]1)=C1SC=CS1 [20(b), Isopropyl 2-(1,3-dithiol-2-ylidene)-2-[N-(5-tetrazolyl)-carbamoyl]acetate] | 10 mg/kg | 99.9% | 5000 mg/kg |
| CC(C)OC(=O)C(C(=O)Nc1ccc(O)cc1)=C1SC=CS1 [22(a), Isopropyl 2-(1,3-dithiol-2-ylidene)-2-[N-(4-hydroxyphenyl)carbamoyl]acetate] | 12.5 mg/kg | 99.2% | > 5000 mg/kg |
| CCOC(=O)C(C(=O)Nc1ccc(O)cc1)=C1SC=CS1 [22(b), Ethyl 2-(1,3-dithiol-2-ylidene)-2-[N-(4-hydroxyphenyl)-carbamoyl]acetate] | < 12.5 mg/kg | 90.9% |  |

Source: patent US5158950A, “1,3-dithiol-2-ylidene derivatives and process for the preparation thereof” (Yuhan Corporation, Ltd., priority 1987, dated 1992)
